Test results reported in patent US9012412B2, “Dual SGLT1/SGLT2 inhibitors” (Janssen Pharmaceutica NV, priority 2013, dated 2015).

What was measured:
[1] = biological target: T1, human SGLT1 (Homo sapiens, UniProt P13866); assay: Sodium-dependent 14C-methyl-α-D-glucopyranoside uptake in CHO-K1 cells stably expressing human SGLT1; type: cell-based; details: for inhibition at 0.1 µM: compound at 0.1 μM; for inhibition at 3 µM: compound at 3 μM; for IC50: 14C-methyl-α-D-glucopyranoside uptake
T1 construct: expressed in transfected cells
T1 sequence (P13866 1-664): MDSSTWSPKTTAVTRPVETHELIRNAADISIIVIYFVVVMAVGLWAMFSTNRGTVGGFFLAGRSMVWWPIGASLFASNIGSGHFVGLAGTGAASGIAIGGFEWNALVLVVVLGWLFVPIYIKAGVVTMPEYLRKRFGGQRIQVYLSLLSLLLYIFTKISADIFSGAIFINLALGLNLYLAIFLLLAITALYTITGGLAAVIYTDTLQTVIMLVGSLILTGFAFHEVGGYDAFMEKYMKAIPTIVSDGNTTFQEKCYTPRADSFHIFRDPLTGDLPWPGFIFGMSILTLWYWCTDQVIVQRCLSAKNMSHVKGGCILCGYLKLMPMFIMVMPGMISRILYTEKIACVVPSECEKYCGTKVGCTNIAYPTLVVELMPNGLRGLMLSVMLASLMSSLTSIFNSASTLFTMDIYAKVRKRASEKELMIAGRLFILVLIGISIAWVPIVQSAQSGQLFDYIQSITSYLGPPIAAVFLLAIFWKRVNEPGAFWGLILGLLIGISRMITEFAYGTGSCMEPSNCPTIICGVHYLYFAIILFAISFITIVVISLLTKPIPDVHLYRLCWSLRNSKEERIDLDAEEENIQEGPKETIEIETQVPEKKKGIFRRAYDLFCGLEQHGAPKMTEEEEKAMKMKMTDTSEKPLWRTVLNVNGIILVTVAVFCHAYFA
Experimental: (§1) SGLT1 and SGLT2 were cloned in form of cDNA from human small intestine (Genbank M24847), and from human kidney (Genbank M95549), respectively. Subsequently, each full cDNA was subcloned into pcDNA with each construct's integrity verified through follow-on sequencing. To generate CHO-K1 cells that stably express human SGLT1 or human SGLT2 CHO-K1 cells were transfected using DMRIE-C reagent (Life Technologies, Gaithersburg, Md.). Transfected cells were then selected in the presence of 500 μg/ml of the antibiotic G418 (Gibco-BRL, Grand Island, N.Y.). Individual clones were then characterized using the following cell-based assay for sodium-dependent glucose transport.
(§2) First, cell lines stably expressing human SGLT1 or SGLT2 were seeded at a density of 65,000 cells per well per 200 μl cell culture medium with 10 mM of NaButyrate (Aldrich Catalog No. 30341-0) in a 96-well flat bottom plate (COSTAR, Catalog No. 3903). For human SGLT1 or SGLT2 expressing CHO-K1 cells the culture medium comprised Ham's F-12 (Invitrogen Catalog No. 31765), Fetal Bovine Serum (Invitrogen Catalog No. 16000), G418 (Geneticin, Cellgro Catalog No. 30234-CI), Phlorizidin (Sigma Catalog No. P3449), DPBS (Cellgro Catalog No. 21030-CV), ^14C-methyl-α-D-glucopyranoside (Amersham Catalog No. CFB 76), and Methyl-α-D-glucopyranoside (Sigma Catalog No. M-9376).
(§3) The cells were allowed to incubate for 24 hours. Subsequently, the medium was aspirated from the plates and the cells were washed one time with 150 μl assay buffer and incubate 15 min with another 150 μl assay buffer which comprised 50 mM HEPES pH 7.4, 20 mM Tris Base, 5 mM KCl, 1 mM MgCl2, 1 mM CaCl2, and 137 mM NaCl. After removing the wash buffer, 40 μl assay buffer and 10 μl compound solution was added to each well, which was again allowed to incubate for 10 min.
(§4) Following the 10 min incubation, 10 μl of serial diluted Methyl-α-D-glucopyranoside (Sigma Catalog No. M-9376) containing 0.07 μCi ^14C-methyl-α-D-glucopyranoside (Amersham Catalog No. CFB 76) was added to the appropriate well and allowed to incubate for another 2 hours. ^14C-methyl-α-D-glucopyranoside (Sigma Catalog No. M-9376, St. Louis, Mo.) is a non-metabolizable glucose analog specific for sodium-dependent glucose transporters as previously described by H. Peng and J. E. Lever in “Post-transcriptional regulation of Na+/glucose cotransporter (SGLT1) gene expression in LLC-PK1 cells,” J. Biol. Chem. 270, 20536-42 (1995).
(§5) Next, the plates were twice washed with 150 μl of ice-cold DPBS (Cellgro Catalog No. 21030) that was then completely removed from the plates before adding 50 μl of MicroScint™-20 (Packard Catalog No. 6013621) to each well for a 20 min or longer incubation time.
(§6) Sodium-dependent ^14C-methyl-α-D-glucopyranoside uptake was quantified by measuring radioactivity. Plates were counted in a TopCount (Packard, Meriden, Conn.). Results are reported as the %-inhibition or IC50 value from a representative experiment. Variability for the functional assay was typically within 20%.

[2] = biological target: T2, human SGLT2 (Homo sapiens, UniProt P31639); assay: Sodium-dependent 14C-methyl-α-D-glucopyranoside uptake in CHO-K1 cells stably expressing human SGLT2; type: cell-based; details: for inhibition at 0.1 µM: compound at 0.1 μM; for IC50: 14C-methyl-α-D-glucopyranoside uptake
T2 construct: expressed in transfected cells
T2 sequence (P31639 1-672): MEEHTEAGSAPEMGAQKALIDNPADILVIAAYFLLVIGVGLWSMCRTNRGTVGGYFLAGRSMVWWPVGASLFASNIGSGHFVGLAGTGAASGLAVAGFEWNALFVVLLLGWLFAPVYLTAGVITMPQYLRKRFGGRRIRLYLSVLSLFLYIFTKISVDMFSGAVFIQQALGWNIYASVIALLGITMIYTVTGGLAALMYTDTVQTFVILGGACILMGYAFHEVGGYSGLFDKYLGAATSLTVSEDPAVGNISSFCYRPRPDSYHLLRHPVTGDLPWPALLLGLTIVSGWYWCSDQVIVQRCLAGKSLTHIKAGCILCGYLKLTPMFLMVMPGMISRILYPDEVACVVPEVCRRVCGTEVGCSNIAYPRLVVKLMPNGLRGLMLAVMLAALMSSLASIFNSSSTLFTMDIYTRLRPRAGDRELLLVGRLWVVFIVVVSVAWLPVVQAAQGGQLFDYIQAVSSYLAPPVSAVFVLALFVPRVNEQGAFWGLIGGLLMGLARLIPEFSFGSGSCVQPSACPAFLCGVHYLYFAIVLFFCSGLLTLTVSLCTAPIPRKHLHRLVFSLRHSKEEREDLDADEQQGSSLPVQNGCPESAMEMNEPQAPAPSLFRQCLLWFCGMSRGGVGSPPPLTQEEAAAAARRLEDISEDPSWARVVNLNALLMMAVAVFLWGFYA
Experimental: as §1, §2, §3, §4, §5, §6

Row | Structure (SMILES) | inhibition at 0.1 µM [1] | inhibition at 0.1 µM [2] | IC50 [1] | IC50 [2] | further results
1 | COc1c([C@@H]2O[C@H](CO)C[C@H](O)[C@H]2O)cc(Cc2cc3ccccc3s2)c(C)c1C [Cpd 23, (2S,3R,4S,6S)-2-(5-(benzo[b]thiophen-2-ylmethyl)-2-methoxy-3,4-dimethylphenyl)-6-(hydroxymethyl)tetrahydro-2H-pyran-3,4-diol] | 50% | 70% |  |  | 
2 | Cc1c(Cc2cc3ccccc3s2)cc([C@@H]2O[C@H](CO)C[C@H](O)[C@H]2O)c(O)c1C [Cpd 22, (2S,3R,4S,6S)-2-(5-(benzo[b]thiophen-2-ylmethyl)-2-hydroxy-3,4-dimethylphenyl)-6-(hydroxymethyl)tetrahydro-2H-pyran-3,4-diol] | 39% | 67% |  |  | 
3 | C=CCOc1c([C@@H]2O[C@H](CO)C[C@H](O)[C@H]2O)cc(Cc2cc3ccccc3s2)c(C)c1C [Cpd 24, (2S,3R,4S,6S)-2-(2-(allyloxy)-5-(benzo[b]thiophen-2-ylmethyl)-3,4-dimethylphenyl)-6-(hydroxymethyl)tetrahydro-2H-pyran-3,4-diol] | 31% | 40% |  |  | 
4 | O=C(c1cc2ccccc2s1)c1cc([C@@H]2O[C@H](CO)C[C@H](O)[C@H]2O)c(O)cc1O [Cpd 18, benzo[b]thiophen-2-yl(5-((2S,3R,4S,6S)-3,4-dihydroxy-6-(hydroxymethyl)tetrahydro-2H-pyran-2-yl)-2,4-dihydroxyphenyl)methanone] |  |  |  |  | inhibition at 3 µM [1]: 19%; inhibition at 0.3 µM ([2]; compound at 0.3 μM): 13%
5 | OC[C@@H]1C[C@H](O)[C@@H](O)[C@H](c2cc(Cc3cc4ccccc4s3)c(C3CC3)cc2O)O1 [Cpd 12, (2S,3R,4S,6S)-2-(5-(benzo[b]thiophen-2-ylmethyl)-4-cyclopropyl-2-hydroxyphenyl)-6-(hydroxymethyl)tetrahydro-2H-pyran-3,4-diol] |  |  | 0.099 µM | 0.683 µM | 
6 | Cc1cc(O)c([C@@H]2O[C@H](CO)C[C@H](O)[C@H]2O)cc1C1(c2cc3ccccc3s2)CC1 [Cpd 10, (2S,3R,4S,6S)-2-(5-(1-(benzo[b]thiophen-2-yl)cyclopropyl)-2-hydroxy-4-methylphenyl)-6-(hydroxymethyl)tetrahydro-2H-pyran-3,4-diol] |  |  | > 3 µM | 0.223 µM | 
7 | CCc1cc(O)c([C@@H]2O[C@H](CO)C[C@H](O)[C@H]2O)cc1Cc1cc2ccccc2s1 [Cpd 11, (2S,3R,4S,6S)-2-(5-(benzo[b]thiophen-2-ylmethyl)-4-ethyl-2-hydroxyphenyl)-6-(hydroxymethyl)tetrahydro-2H-pyran-3,4-diol] |  |  |  | 0.061 µM | inhibition at 3 µM [1]: 95%
8 | C=Cc1cc(O)c([C@@H]2O[C@H](CO)C[C@H](O)[C@H]2O)cc1Cc1cc2ccccc2s1 [Cpd 17, (2S,3R,4S,6S)-2-(5-(benzo[b]thiophen-2-ylmethyl)-2-hydroxy-4-vinylphenyl)-6-(hydroxymethyl)tetrahydro-2H-pyran-3,4-diol] | 58% | 64% |  |  | 
9 | OC[C@@H]1C[C@H](O)[C@@H](O)[C@H](c2cc(Cc3cc4ccccc4s3)c(F)cc2O)O1 [Cpd 4, (2S,3R,4S,6S)-2-(5-(benzo[b]thiophen-2-ylmethyl)-4-fluoro-2-hydroxyphenyl)-6-(hydroxymethyl)-tetrahydro-2H-pyran-3,4-diol] |  |  | 0.893 µM | 0.128 µM | 
10 | Cc1cc(O)c([C@@H]2O[C@H](CO)C[C@H](O)[C@H]2O)cc1Cc1cc2ccccc2s1 [Cpd 1, (2S,3R,4S,6S)-2-(5-(benzo[b]thiophen-2-ylmethyl)-2-hydroxy-4-methylphenyl)-6-(hydroxymethyl)tetrahydro-2H-pyran-3,4-diol] |  |  | 0.117 µM | 0.016 µM | 
11 | OC[C@@H]1C[C@H](O)[C@@H](O)[C@H](c2cc(Cc3cc4ccccc4s3)c(C(F)(F)F)cc2O)O1 [Cpd 16, (2S,3R,4S,6S)-2-(5-(benzo[b]thiophen-2-ylmethyl)-2-hydroxy-4-(trifluoromethyl)phenyl)-6-(hydroxymethyl)tetrahydro-2H-pyran-3,4-diol] |  | 77% | 0.24 µM |  | 

Continued, in another order:

Row | inhibition at 0.1 µM [1] | inhibition at 0.1 µM [2] | IC50 [1] | IC50 [2] | Structure (SMILES) | further results
12 | 33% | 57% |  |  | Cc1cc(-c2ccc[nH]2)c([C@@H]2O[C@H](CO)C[C@H](O)[C@H]2O)cc1Cc1cc2ccccc2s1 [Cpd 26, (2S,3R,4S,6S)-2-(5-(benzo[b]thiophen-2-ylmethyl)-4-methyl-2-(1H-pyrrol-2-yl)phenyl)-6-(hydroxymethyl)tetrahydro-2H-pyran-3,4-diol] | 
13 | 26% | 47% |  |  | Cc1cc(Br)c([C@@H]2O[C@H](CO)C[C@H](O)[C@H]2O)cc1Cc1cc2ccccc2s1 [Cpd 25, (2S,3R,4S,6S)-2-(5-(benzo[b]thiophen-2-ylmethyl)-2-bromo-4-methylphenyl)-6-(hydroxymethyl)tetrahydro-2H-pyran-3,4-diol] | 
14 |  | 58% | 0.272 µM |  | Cc1cc(O)c([C@@H]2O[C@H](CO)C[C@H](O)[C@H]2O)cc1Cc1ccc(-c2ccc(F)cc2)s1 [Cpd 31, (2S,3R,4S,6S)-2-(5-((5-(4-fluorophenyl)thiophen-2-yl)methyl)-2-hydroxy-4-methylphenyl)-6-(hydroxymethyl)tetrahydro-2H-pyran-3,4-diol] | 
15 |  |  | 0.097 µM | 0.004 µM | CCc1ccc(Cc2cc([C@@H]3O[C@H](CO)C[C@H](O)[C@H]3O)c(O)cc2C)s1 [Cpd 32, (2S,3R,4S,6S)-2-(5-((5-ethylthiophen-2-yl)methyl)-2-hydroxy-4-methylphenyl)-6-(hydroxymethyl)tetrahydro-2H-pyran-3,4-diol] | 
16 | 22% | 41% |  |  | Cc1cc(O)c([C@@H]2O[C@H](CO)C[C@H](O)[C@H]2O)cc1Cc1nc2ccccc2s1 [Cpd 29, (2S,3R,4S,6S)-2-(5-(benzo[d]thiazol-2-ylmethyl)-2-hydroxy-4-methylphenyl)-6-(hydroxymethyl)tetrahydro-2H-pyran-3,4-diol] | 
